The molecule `*C/C=C(/Cl)C*` (repeat unit) came in with a CH4 permeability of 3.28 Barrer, a CO2 permeability of 25.6 Barrer, an H2 permeability of 20.6 Barrer and an N2 permeability of 2.07 Barrer. Further, the O2 permeability came to 4 Barrer.

On to `*/C(C)=C(/*)[Si](C)(C)C(C)C` (repeat unit), for which the CH4 permeability amounted to 360 Barrer, the CO2 permeability turned out to be 2200 Barrer, the H2 permeability is 1650 Barrer and the N2 permeability was 170 Barrer. The O2 permeability was 460 Barrer.

As for `*Oc1ccc2c(c1)C1(CC2(C)C)CC(C)(C)c2ccc(OC(=O)c3ccc(C(*)=O)cc3)cc21` (repeat unit), the CH4 permeability stood at 4.22 Barrer, the CO2 permeability was determined as 55.7 Barrer, the N2 permeability turned out to be 2.98 Barrer and the O2 permeability was 13.4 Barrer.

Consider `*OCCCCCC(*)=O` (repeat unit), for which the CH4 permeability came to 1.57 Barrer, the CO2 permeability was 16.8 Barrer, the H2 permeability is 5.06 Barrer and the N2 permeability was found to be 0.59 Barrer. Further, the O2 permeability was 1.32 Barrer.

Molecule `*c1ccc(-c2nnc(-c3ccc(N4C(=O)c5ccc(C(c6ccc7c(c6)C(=O)N(*)C7=O)(C(F)(F)F)C(F)(F)F)cc5C4=O)cc3)o2)cc1` (repeat unit) gave a CH4 permeability of 0.25 Barrer, a CO2 permeability of 15.6 Barrer and an N2 permeability of 0.61 Barrer.

In turn, `*Oc1ccc(-c2c(-c3ccc(C#N)cc3)c(-c3ccc(C#N)cc3)c(-c3ccc4c(c3)Oc3c(C#N)c(*)c(*)c(C#N)c3O4)c(-c3ccc(C#N)cc3)c2-c2ccc(C#N)cc2)cc1O*` (repeat unit) showed a CH4 permeability of 93 Barrer, a CO2 permeability of 1300 Barrer, an H2 permeability of 734 Barrer and an N2 permeability of 52 Barrer. The same molecule gave an O2 permeability of 205 Barrer.

Take `*c1ccc(Oc2ccc(N3C(=O)c4ccc(Sc5ccc6c(c5)C(=O)N(*)C6=O)cc4C3=O)cc2)cc1` (repeat unit): the H2 permeability is 4.68 Barrer, the N2 permeability was 0.021 Barrer and the O2 permeability worked out at 0.198 Barrer.

For `*Cc1ccc(C*)c(Br)c1` (repeat unit), the CO2 permeability amounted to 0.036 Barrer and the H2 permeability was 0.452 Barrer.

`*Oc1cc2c(cc1O*)C1(c3cc(C(C)(C)C)ccc3-2)c2cc(C(C)(C)C)ccc2-c2cc3c(cc21)Oc1c(C#N)c(*)c(*)c(C#N)c1O3` (repeat unit): the CH4 permeability amounted to 1700 Barrer, the CO2 permeability was 13200 Barrer, the H2 permeability was found to be 5150 Barrer and the N2 permeability was 815 Barrer. For the same molecule, the O2 permeability amounted to 2310 Barrer.

`*Nc1c(C)cc(Cc2cc(C)c(NC(=O)c3ccc(Oc4cc(C(C)(C)C)c(Oc5ccc(C(*)=O)cc5)cc4C(C)(C)C)cc3)c(C(C)C)c2)cc1C(C)C` (repeat unit) displayed a CH4 permeability of 1.21 Barrer, a CO2 permeability of 27 Barrer, an N2 permeability of 1.18 Barrer and an O2 permeability of 6.47 Barrer.

For `*c1ccc(-c2cc(C)c(-c3ccc(*)c(C)c3)cc2C)cc1C` (repeat unit), the CH4 permeability turned out to be 1.1 Barrer, the H2 permeability was 51 Barrer, the N2 permeability was found to be 1.6 Barrer and the O2 permeability was found to be 8.6 Barrer.

Turning to `*C(=C(*)c1ccc2c(c1)C(C)(C)c1ccccc1-2)c1cc(F)cc(F)c1` (repeat unit), the CH4 permeability amounted to 4200 Barrer, the CO2 permeability was determined as 9200 Barrer, the H2 permeability was found to be 5000 Barrer and the N2 permeability came to 1700 Barrer. The same molecule had an O2 permeability of 2700 Barrer.

In turn, `*/C(C)=C(/*)[Si](C)(C)CCCCCCCC` (repeat unit) registered a CH4 permeability of 13 Barrer, a CO2 permeability of 100 Barrer, an H2 permeability of 47 Barrer and an N2 permeability of 19 Barrer. The O2 permeability was 23 Barrer.

Take `*C(=C(*)c1ccc([Si](C)(C)CCCCCCCC)cc1)c1ccc(C(C)C)cc1` (repeat unit): the CO2 permeability was 120 Barrer, the N2 permeability is 9.1 Barrer and the O2 permeability was 29 Barrer.

In the case of `*C(=C(*)c1ccc2c(ccc3ccccc32)c1)c1ccc([Si](C)(C)C)cc1` (repeat unit), the CH4 permeability turned out to be 500 Barrer, the CO2 permeability came to 2100 Barrer, the H2 permeability amounted to 900 Barrer and the N2 permeability amounted to 190 Barrer. The molecule also showed an O2 permeability of 460 Barrer.

For the molecule `*c1ccc(Sc2ccc(Sc3ccc(Sc4ccc(N5C(=O)c6ccc(C(c7ccc8c(c7)C(=O)N(*)C8=O)(C(F)(F)F)C(F)(F)F)cc6C5=O)cc4)cc3)cc2)cc1` (repeat unit), the CH4 permeability amounted to 0.22 Barrer, the CO2 permeability amounted to 8.37 Barrer, the N2 permeability was 0.37 Barrer and the O2 permeability was 1.72 Barrer.

On to `*Sc1ccc(*)cc1` (repeat unit), for which the CH4 permeability was found to be 0.066 Barrer, the CO2 permeability worked out at 1.6 Barrer, the N2 permeability is 0.046 Barrer and the O2 permeability worked out at 0.19 Barrer.

In turn, `*CC(*)C(=O)OCCCCCCCCCCCCCC` (repeat unit) registered a CH4 permeability of 65.1 Barrer, a CO2 permeability of 297 Barrer, an H2 permeability of 96.2 Barrer and an N2 permeability of 22.1 Barrer. The molecule further showed an O2 permeability of 57.1 Barrer.

For the molecule `*Oc1c(C)cc(C(C)(C)c2cc(C)c(Oc3ccc(C(=O)c4ccc(*)cc4)cc3)c(C)c2)cc1C` (repeat unit), the CH4 permeability came out at 1.1 Barrer, the CO2 permeability is 20 Barrer, the H2 permeability was 52 Barrer and the N2 permeability was 1.1 Barrer. The same molecule showed an O2 permeability of 5.6 Barrer.

The molecule `*CC(*)OC1CCCCC1` (repeat unit) returned a CO2 permeability of 13.6 Barrer, an N2 permeability of 0.99 Barrer and an O2 permeability of 3.69 Barrer.

Turning to `*Oc1ccc(C(C)(C)c2cccc(C(C)(C)c3ccc(Oc4ccc(S(=O)(=O)c5ccc(*)cc5)cc4)cc3)c2)cc1` (repeat unit), the CH4 permeability was 0.111 Barrer, the CO2 permeability was determined as 2.8 Barrer, the H2 permeability stood at 10.6 Barrer and the N2 permeability is 0.11 Barrer. This molecule had an O2 permeability of 0.69 Barrer.

In turn, `*c1cccc(N2C(=O)c3ccc(C(=O)c4ccc5c(c4)C(=O)N(*)C5=O)cc3C2=O)c1` (repeat unit) yielded a CH4 permeability of 0.0086 Barrer, a CO2 permeability of 0.428 Barrer, an N2 permeability of 0.016 Barrer and an O2 permeability of 0.112 Barrer.

Take `*CC(C)O*` (repeat unit): the CH4 permeability was determined as 34 Barrer, the CO2 permeability worked out at 190 Barrer, the H2 permeability is 42 Barrer and the N2 permeability worked out at 11 Barrer. The O2 permeability was 28 Barrer.

On to `*C/C=C(/C)C*` (repeat unit), for which the CH4 permeability was 29.6 Barrer, the CO2 permeability turned out to be 153 Barrer, the H2 permeability came out at 49 Barrer and the N2 permeability was 8.75 Barrer. The same molecule returned an O2 permeability of 23.3 Barrer.

Molecule `*Oc1ccc(C(c2ccc(OC(=O)c3cc(C(*)=O)cc(C(C)(C)C)c3)cc2)(C(F)(F)F)C(F)(F)F)cc1` (repeat unit) came in with a CH4 permeability of 3.47 Barrer, a CO2 permeability of 56.9 Barrer, an H2 permeability of 86.7 Barrer and an N2 permeability of 3.72 Barrer. The same molecule yielded an O2 permeability of 15.7 Barrer.

`*Oc1ccc(C(=O)c2ccc(Oc3ccc(C(c4ccc(*)cc4)(C(F)(F)F)C(F)(F)F)cc3)cc2)c2ccccc12` (repeat unit) came in with a CH4 permeability of 0.21 Barrer, a CO2 permeability of 6.04 Barrer, an N2 permeability of 0.325 Barrer and an O2 permeability of 1.85 Barrer.
